In publication PMC12514245, “Impaired migration and lung invasion of human melanoma by a novel small molecule targeting the transmembrane domain of death receptor p75^NTR” (EMBO Molecular Medicine, 2025):
Where “and” joins values, the source holds several entries; their conditions need not be identical. Equal values may be shown once. Read-outs that look alike come from different tables or passages of the source.

Tests used:
[1] = tested on: fascin in Triton-insoluble fraction of A875 NT cells; assay: Detergent-insolubility assay of fascin, A875 NT; assay type: cell-based, human; details: for Fold change (compared to untreated cells): insoluble/total fascin
Experimental: A single cell suspension was obtained by trypsinization followed by centrifugation and detergent extraction with lysis buffer (with 0.5% Triton X-100). Then, immediately centrifuged at 8700 g for 3 min. The resulting pellets (containing the Triton X-100-resistant proteins) were suspended in lysis buffer without Triton X-100. In parallel, cells were centrifuged and then directly suspended in lysis buffer. The Triton X-100- resistant proteins and total cell lysates were analyzed by SDS–PAGE and Western blotting with anti-fascin antibody.

[2] = tested on: A875-NT melanoma xenograft; assay: Melanoma lung invasion assay, A875-NT, delayed treatment 3 weeks after cell injection; assay type: in vivo, SCID mice
Experimental: Finally, we investigated whether delayed administration of Np75-4A22 was able to affect engraftment and growth of metastatic tumors in the lung. To this end, drug treatment (orally at 200 mg/kg) was initiated 3 weeks after intravenous injection of A875-NT or A875-shp75 cells in female SCID mice and continued for additionally 4 weekly cycles (5 days on/2 days off) as above (Fig. 8E). Metastatic spread to the lungs was monitored weekly by bioluminescent imaging of luciferase-expressing melanoma cells. […] We conclude that Np75-4A22 can be efficacious at reducing the spread and seeding of melanoma cells in the lung when administered either before or after cell implantation.
Eight-week-old female SCID mice (Charles River Laboratories, Shrewsbury, MA, USA) were housed in groups of three to five and maintained on a 12-h light/dark schedule with a temperature of 22 °C ± 1 °C and a relative humidity of 50% ± 5%. Food and water were available ad libitum. This research study was reviewed and approved by the University of Calgary Animal Care Committee (AC22-0054) and McGill University (AUP-JGH-8269) and adheres to established ethical principles and guidelines. A875-GFPLuc (A875-NT) or A875-GFPLuc shp75 (A875-shp75) cells harvested using Puck’s EDTA were resuspended in PBS and injected intravenously into SCID mice (5 × 10^5 cells/200 μl per mouse). Np75-4A22 was dissolved in 0.5% sodium carboxymethyl cellulose (NaCMC) in reverse osmosis H2O and administered by oral gavage at 200 mg/kg/day starting one day prior to intravenous (tail vein) injection of tumor cells and continued for 3 1-week cycles (cycle: 5 days on drug, 2 days off drug). Tumor spread to the lung was monitored weekly by luciferase activity using the Xenogen IVIS-200 Optical in vivo luciferase imaging system as described previously (Lun et al, [2016]) and by immunohistochemistry (IHC) at designated time points. IHC was performed after formalin fixation, paraffin embedding and sectioning of the lungs, using a human-specific mouse polyclonal nucleolin antibody (1:500 dilution) and detected using Dako liquid DAB+ Substrate Chromogen System (Dako: k3468, California, USA) followed by a hematoxylin counterstain (Sigma, Oakville, ON, Canada). Sections were mounted and imaged on an Olympus phase contrast microscope (Olympus Life Science, Tokyo, Japan). For immunofluorescence, sections were stained with anti-human nucleolin and anti-human p75NTR antibodies (1:1000 dilution), subsequently detected with 1:200 dilutions of Alexa Fluor™ 488 Goat anti-Mouse IgG (H + L) Highly Cross-Adsorbed Secondary Antibody and Alexa Fluor™ 568 Goat anti-Rabbit IgG (H + L) Cross-Adsorbed Secondary Antibody. Sections were further stained with DAPI to detect all nuclei. Between each treatment, TBS Automation Wash Buffer (Biocare Medical TWB945M) was employed. Images were taken with LSM800 confocal microscope and ZEN system.

[3] = mouse, in vivo
[4] = molecular target: T1, Matrix-2 protein (M2) TMD (Influenza A virus, UniProt P06821); assay type: cell-based; details: for GFP/OD630, M2, mean: N=3
T1 construct: unrelated TMDs from α2β3 integrin and Matrix-2 protein (M2); expressed in transfected cells

A875 NT cells = assay: Cell viability (Presto Blue), A875 NT; assay type: cell-based, human
Experimental: (§1) To measure the cytotoxic effect of Div17E5, A875 NT or shp75 cells were seeded at 2000 cells per well (in 100 μL DMEM) in a 96-well plate and incubated for 12 h. Next, Div17E5 at various concentrations was added and incubated at 37 °C in 5% CO2 for 2 days. Following treatment, 10 μL Presto Blue® (resazurin, ThermoFIsher) was added to each well of the 96-well plate and incubated for 2 h at 37 °C in 5% CO2. Cellular fluorescence in each well was measured at 535 nm excitation and 615 nm emission using a microtiter plate reader. Data was converted into the relative cell viability (%) from the fluorescence of cells in each treatment relative to that of the DMSO control group (set as 100%).

[5] = Cell viability (Presto Blue), A875 NT; assay type: cell-based, human; details: human, A875 NT cells, 2 days; for viability at 2 days, 1 uM: Div17E5 1 uM; for viability at 2 days, 1.5 uM: Div17E5 1.5 uM
Experimental: as §1

[6] = N=3, read-out: Cell Viability, Mean
[7] = read-out: Cell Viability, n1-n3

T1 sequence (P06821 23-43 limits assumed): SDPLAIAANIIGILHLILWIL

SMILES: Cc1cccc(-c2cncc(Nc3ccc(Br)c(Cl)c3Cl)n2)c1C [Np75-4A22]
- Toral fascin without background ([1]; 1 μM 4A22, band OD, n1-n3): 39995.1 and 74813.2 and 39347.1
- Fold change (compared to untreated cells) ([1]; 1 μM 4A22, n1-n3): 0.751 and 0.708 and 0.695
- NGF-increased fascin in detergent insoluble fraction ([1]; 1 μM, NGF 100 ng/ml): blocked this effect
- Fold change (compared to untreated cells) ([1]; NGF + 1 μM 4A22, n1-n3): 0.947 and 0.577 and 0.569
- Average Photons/second/week, wk2 ([2]; A875-NT, group average, wk2): 7.77E+04 Photons/second
- Average Photons/second/week, wk3 ([2]; A875-NT, group average, wk3): 1.89E+05 Photons/second
- Average Photons/second/week, wk4 ([2]; A875-NT, group average, wk4): 1.70E+05 Photons/second
- Average Photons/second/week, wk5 ([2]; A875-NT, group average, wk5): 3.04E+05 Photons/second
- Average Photons/second/week, wk6 ([2]; A875-NT, group average, wk6): 8.45E+05 Photons/second
- Average Photons/second/week, wk7 ([2]; A875-NT, group average, wk7): 3.17E+06 Photons/second
- Photons/second/ mouse/week, wk2 ([2]; A875-NT, individual mouse, wk2): 7.00E+04 Photons/second and 7.88E+04 Photons/second and 6.89E+04 Photons/second and 1.01E+05 Photons/second and 8.02E+04 Photons/second and 7.86E+04 Photons/second and 8.67E+04 Photons/second and 5.74E+04 Photons/second
- Photons/second/ mouse/week, wk3 ([2]; A875-NT, individual mouse, wk3): 1.59E+05 Photons/second and 1.50E+05 Photons/second and 1.97E+05 Photons/second and 3.40E+05 Photons/second and 2.35E+05 Photons/second and 1.26E+05 Photons/second and 1.46E+05 Photons/second
- Photons/second/ mouse/week, wk4 ([2]; A875-NT, individual mouse, wk4): 1.44E+05 Photons/second and 1.39E+05 Photons/second and 1.26E+05 Photons/second and 1.15E+05 Photons/second and 2.32E+05 Photons/second and 2.12E+05 Photons/second and 2.11E+05 Photons/second and 1.82E+05 Photons/second
- Photons/second/ mouse/week, wk5 ([2]; A875-NT, individual mouse, wk5): 2.30E+05 Photons/second and 1.68E+05 Photons/second and 2.24E+05 Photons/second and 7.71E+05 Photons/second and 3.62E+05 Photons/second and 2.51E+05 Photons/second and 2.06E+05 Photons/second and 2.23E+05 Photons/second
- Photons/second/ mouse/week, wk6 ([2]; A875-NT, individual mouse, wk6): 1.70E+05 Photons/second and 6.38E+04 Photons/second and 3.70E+05 Photons/second and 3.16E+06 Photons/second and 2.58E+06 Photons/second and 1.54E+05 Photons/second and 1.46E+05 Photons/second and 1.19E+05 Photons/second
- Photons/second/ mouse/week, wk7 ([2]; A875-NT, individual mouse, wk7): 5.60E+05 Photons/second and 5.09E+05 Photons/second and 3.70E+06 Photons/second and 1.34E+07 Photons/second and 6.38E+06 Photons/second and 2.75E+05 Photons/second and 2.70E+05 Photons/second and 2.40E+05 Photons/second
- lung tumors (bioluminescent imaging), delayed treatment ([2]; oral 200 mg/kg, started 3 weeks after cell injection, 4 weekly cycles): reducing A875-NT lung tumors to very low levels
- single dose toxicity [3]: No mortality or abnormal clinical signs

SMILES: Oc1ccc(-c2cncc(Nc3ccc(Br)c(Cl)c3)n2)cc1 [Div17E5]
- GFP/OD630, M2, single replicates ([4]; Div17E5 1 μM): 96 and 90 and 113
- GFP/OD630, M2, mean ([4]; Div17E5 1 μM): 100
- GFP/OD630, M2, single replicates ([4]; Div17E5 2.5 μM): 94 (2×) and 111
- GFP/OD630, M2, mean ([4]; Div17E5 2.5 μM): 100
- GFP/OD630, M2, single replicates ([4]; Div17E5 5 μM): 89 and 109 and 92
- GFP/OD630, M2, mean ([4]; Div17E5 5 μM): 97
- GFP/OD630, M2, single replicates ([4]; Div17E5 10 μM): 90 and 105 and 99
- GFP/OD630, M2, mean ([4]; Div17E5 10 μM): 98
- GFP/OD630, M2, single replicates ([4]; Div17E5 20 μM): 109 and 89 and 98
- GFP/OD630, M2, mean ([4]; Div17E5 20 μM): 99
- GFP/OD630, M2, single replicates ([4]; Div17E5 50 μM): 112 and 92 and 109
- GFP/OD630, M2, mean ([4]; Div17E5 50 μM): 104
- Cell Viability, n1-n3 (A875 NT cells; Div17E5 0.5 uM, 2 days): 76%
- Cell Viability, n1-n3 (A875 NT cells; Div17E5 1 uM, 2 days): 69% and 80%
- Cell Viability, n1-n3 (A875 NT cells; Div17E5 1.5 uM, 2 days): 66%
- Cell Viability, n1-n3 (A875 NT cells; Div17E5 2.5 uM, 2 days): 61% and 52%
- Cell Viability, n1-n3 (A875 NT cells; Div17E5 5 uM, 2 days): 51% and 57%
- Cell Viability, n1-n3 (A875 NT cells; Div17E5 7.5 uM, 2 days): 44% and 51%
- Cell Viability, n1-n3 (A875 NT cells; Div17E5 10 uM, 2 days): 39% and 42%
- viability at 0.5 µM (A875 NT cells; Homo sapiens, A875, 48 h, Div17E5 0.5 uM, 2 days, read-out: Cell Viability, n1-n3): 85%
- viability at 2 µM (A875 NT cells; Homo sapiens, A875, 48 h, Div17E5 2 uM, 2 days, read-out: Cell Viability, n1-n3): 67%
- viability at 2.5 µM (A875 NT cells; Homo sapiens, A875, 48 h, Div17E5 2.5 uM, 2 days, N=3, read-out: Cell Viability, Mean): 59%
- viability at 2.5 µM (A875 NT cells; Homo sapiens, A875, 48 h, Div17E5 2.5 uM, 2 days, read-out: Cell Viability, n1-n3): 65%
- viability at 5 µM (A875 NT cells; Homo sapiens, A875, 48 h, Div17E5 5 uM, 2 days, N=3, read-out: Cell Viability, Mean): 55%
- viability at 5 µM (A875 NT cells; Homo sapiens, A875, 48 h, Div17E5 5 uM, 2 days, read-out: Cell Viability, n1-n3): 58%
- viability at 7.5 µM (A875 NT cells; Homo sapiens, A875, 48 h, Div17E5 7.5 uM, 2 days, N=3, read-out: Cell Viability, Mean): 50%
- viability at 7.5 µM (A875 NT cells; Homo sapiens, A875, 48 h, Div17E5 7.5 uM, 2 days, read-out: Cell Viability, n1-n3): 55%
- viability at 10 µM (A875 NT cells; Homo sapiens, A875, 48 h, Div17E5 10 uM, 2 days, read-out: Cell Viability, n1-n3): 49%
- cell viability (A875 NT cells; above 10 μM): sensitive
- cell viability (A875 NT cells; dose-dependent): decreased viability
- viability at 2 days, 0.5 uM ([5]; Div17E5 0.5 uM, N=3): 79%
- viability at 2 days, 1 uM [5, 6]: 75%
- viability at 2 days, 1 uM [5, 7]: 77%
- viability at 2 days, 1.5 uM [5, 6]: 65%
- viability at 2 days, 1.5 uM [5, 7]: 71%
